Here are results for one molecule from US20240083920A1, “LOW MOLECULAR WEIGHT CORROLE COMPOSITIONS” (TECHNION RESEARCH & DEVELOPMENT FOUNDATION LTD, priority 2021, published 2024).

SMILES strings stand for the structures.

The nature of the data set: Stability in solution / on storage. As to conditions: in solution / ambient conditions.

Regarding `C1=Cc2cc3ccc([nH]3)c3ccc(cc4ccc(cc1n2)[nH]4)[nH]3` [H3(cor)], the stability result was “stability was limited due to ambient humidity and light conditions”.
